The results in this text go back to patent US7132455B2, “Phthalamide derivatives” (Bayer Cropscience AG, priority 2002, dated 2006).

Assay [1] has as its system larva of Spodoptera litura. In words: Test against larva of Spodoptera litura (leaf dip, sweet potato leaves). It counts as in vivo. The settings on record: 20 ppm concentration of effective component; third instar larvae on treated sweet potato leaves; after 7 days; 25° C. On the procedure: Test against larva of Spodoptera litura
In order to make an appropriate formulation of an active compound 1 part by weight of the active compound was mixed with the above-mentioned amount of solvent containing the above-mentioned amount of emulsifier and the mixture was diluted with water to a prescribed concentration.
Leaves of sweet potato were soaked in the test agent diluted to a prescribed concentration with water, dried in the air and put in a dish of 9 cm diameter. 10 larvae of Spodoptera litura at the third instar were placed on the leaves and kept in a room at constant temperature of 25° C. After 2 and 4 days further leaves of sweet potato were added and after 7 days the number of dead larvae was counted and the rate of death was calculated.
In this test the results of 2 dishes at 1 section were averaged.

Assay [2] concerns larva of Cnaphalocrocis medinalis Guenee. Briefly: Test against larva of Cnaphalocrocis medinalis Guenee (systemic, root uptake by paddy rice). The format is in vivo. The note with it: 20 ppm concentration of effective component; rice root parts in diluted solution, foliage fed to second instar larvae; after 7 days; 25° C. An excerpt: Test Against Larva of Cnaphalocrocis medinalis Guenee Root parts of paddy rice (variety: […]) cultivated to 4 to 5 leaf stage were put in a brown bottle filled with the diluted aqueous solution of the prescribed concentration of the active compound prepared in the same manner as in the above-mentioned Biological Test Example 1. Three days after the treatment with the agent, 1⁄3 amount of rice plant was collected and their foliage part was cut in 4 to 5 cm length, which were put in a dish with 9 cm diameter with a sheet of filter paper wetted with 2 mL of water. Five larvae of Cnaphalocrocis medinalis Guenee at the second instar were put in the dish which was placed in a room at constant temperature of 25° C. After 2 and 4 days, each rest (each 1⁄3 amount) of foliage parts of rice plant were cut in the same manner and added to the dish. After 7 days the number of dead larvae was counted and the rate of death was calculated. In this test the results of 2 dishes at 1 section were averaged.

As to `CCS(=O)(=O)Oc1cccc(C(=O)Nc2ccc(C(F)(C(F)(F)F)C(F)(F)F)cc2C)c1C(=O)NC(C)(C)CSC` [compound 17, N^2-[1,1-dimethyl-2-(methylthio)ethyl]-N^1-(4-heptafluoroisopropyl-2-methylphenyl)-3-ethanesulfonyloxyphthalamide], the rate of death in assay [1] was determined as 100%.
As for `Cc1cc(C(F)(C(F)(F)F)C(F)(F)F)ccc1NC(=O)c1cccc(OS(C)(=O)=O)c1C(=O)NC(C)(C)C[S+](C)[O-]` (centres unmarked) [compound 11, N^2-[1,1-dimethyl-2-(methylsulfinyl)ethyl]-N^1-(4-heptafluoroisopropyl-2-methylphenyl)-3-methanesulfonyloxyphthalamide], the rate of death in assay [1] and in assay [2] was 100% in each case.
In assay [1], `CSCC(C)NC(=O)c1c(OS(C)(=O)=O)cccc1C(=O)Nc1ccc(OC(F)(F)F)cc1C` (centres unmarked) [compound 6, N^2-[1-methyl-2-(methylthio)ethyl]-N^1-(4-trifluoromethoxy-2-methylphenyl)-3-methanesulfonyloxyphthalamide] showed a rate of death of 100%.
`CSCC(C)(C)NC(=O)c1c(OS(C)(=O)=O)cccc1C(=O)Nc1ccc(Cl)c(Cl)c1Cl` [compound 24, N^2-[1,1-dimethyl-2-(methylthio)ethyl]-N^1-(2,3,4-trichlorophenyl)-3-methanesulfonyloxyphthalamide] registered a rate of death in assay [1] of 100%.
Turning to `Cc1cc(C(F)(C(F)(F)F)C(F)(F)F)ccc1NC(=O)c1cccc(OS(C)(=O)=O)c1C(=O)NC(C)(C)CS(C)(=O)=O` [compound 12, N^2-[1,1-dimethyl-2-(methylsulfonyl)ethyl]-N^1-(4-heptafluoroisopropyl-2-methylphenyl)-3-methanesulfonyloxyphthalamide], the rate of death in assay [1] and in assay [2] was 100% in each case.
For the compound `CSCC(C)(C)NC(=O)c1c(OS(C)(=O)=O)cccc1C(=O)Nc1ccc(C(F)(C(F)(F)F)C(F)(F)F)cc1C` [compound 10, N^2-[1,1-dimethyl-2-(methylthio)ethyl]-N^1-(4-heptafluoroisopropyl-2-methylphenyl)-3-methanesulfonyloxyphthalamide], the rate of death in assay [1] and in assay [2] was 100% each time.
Consider `CSCC(C)NC(=O)c1c(OS(C)(=O)=O)cccc1C(=O)Nc1ccc(C(F)(C(F)(F)F)C(F)(F)F)cc1` (centres unmarked) [compound 5, N^1-(4-heptafluoroisopropylphenyl)-N^2-[1-methyl-2-(methylthio)ethyl]-3-methanesulfonyloxyphthalamide], for which the rate of death in assay [1] and in assay [2] was 100% throughout.
With `CSCC(C)NC(=O)c1c(OS(=O)(=O)C(F)(F)F)cccc1C(=O)Nc1ccc(C(F)(C(F)(F)F)C(F)(F)F)cc1C` (centres unmarked) [compound 21, N^1-(4-heptafluoroisopropyl-2-methylphenyl)-N^2-[1-methyl-2-(methylthio)ethyl]-3-trifluoromethanesulfonyloxyphthalamide], the rate of death in assay [1] came to 100%.
Consider `Cc1cc(C(F)(C(F)(F)F)C(F)(F)F)ccc1NC(=O)c1cccc(OS(C)(=O)=O)c1C(=O)NC(C)C` [compound no. 1, N^1(4-heptafluoroisopropyl-2-methylphenyl)-N-2-isopropyl-3-methanesulfonyloxyphthalamide], for which the rate of death in assay [1] and in assay [2] was 100% in each case.
Turning to `CCS(=O)(=O)Oc1cccc(C(=O)Nc2ccc(C(F)(C(F)(F)F)C(F)(F)F)cc2C)c1C(=O)NC(C)CSC` (centres unmarked) [compound 14, N^1-(4-heptafluoroisopropyl-2-methylphenyl)-N^2-[1-methyl-2-(methylthio)ethyl]-3-ethanesulfonyloxyphthalamide], in assay [1], the rate of death is recorded as 100%.
In the case of `CSCC(C)NC(=O)c1c(OS(C)(=O)=O)cccc1C(=O)Nc1ccc(C(F)(C(F)(F)F)C(F)(F)F)cc1C` (centres unmarked) [compound 7, N^1-(4-heptafluoroisopropyl-2-methylphenyl)-N^2-[1-methyl-2-(methylthio)-ethyl]-3-methanesulfonyloxyphthalamide], the rate of death in assay [1] and in assay [2] was 100% each time.
